{"source": "patent US12539292B2", "about": "“BRM targeting compounds and associated methods of use” (Arvinas Operations, Inc., priority 2018, dated 2026)", "molecular_target": "T1, BRM (Homo sapiens, UniProt P51531)", "T1 construct": "In-Cell Western Screen of BRM Degradation in SW1573 Cells; endogenous in cells; host or cells: SW1573", "T1 sequence (P51531 whole entry)": "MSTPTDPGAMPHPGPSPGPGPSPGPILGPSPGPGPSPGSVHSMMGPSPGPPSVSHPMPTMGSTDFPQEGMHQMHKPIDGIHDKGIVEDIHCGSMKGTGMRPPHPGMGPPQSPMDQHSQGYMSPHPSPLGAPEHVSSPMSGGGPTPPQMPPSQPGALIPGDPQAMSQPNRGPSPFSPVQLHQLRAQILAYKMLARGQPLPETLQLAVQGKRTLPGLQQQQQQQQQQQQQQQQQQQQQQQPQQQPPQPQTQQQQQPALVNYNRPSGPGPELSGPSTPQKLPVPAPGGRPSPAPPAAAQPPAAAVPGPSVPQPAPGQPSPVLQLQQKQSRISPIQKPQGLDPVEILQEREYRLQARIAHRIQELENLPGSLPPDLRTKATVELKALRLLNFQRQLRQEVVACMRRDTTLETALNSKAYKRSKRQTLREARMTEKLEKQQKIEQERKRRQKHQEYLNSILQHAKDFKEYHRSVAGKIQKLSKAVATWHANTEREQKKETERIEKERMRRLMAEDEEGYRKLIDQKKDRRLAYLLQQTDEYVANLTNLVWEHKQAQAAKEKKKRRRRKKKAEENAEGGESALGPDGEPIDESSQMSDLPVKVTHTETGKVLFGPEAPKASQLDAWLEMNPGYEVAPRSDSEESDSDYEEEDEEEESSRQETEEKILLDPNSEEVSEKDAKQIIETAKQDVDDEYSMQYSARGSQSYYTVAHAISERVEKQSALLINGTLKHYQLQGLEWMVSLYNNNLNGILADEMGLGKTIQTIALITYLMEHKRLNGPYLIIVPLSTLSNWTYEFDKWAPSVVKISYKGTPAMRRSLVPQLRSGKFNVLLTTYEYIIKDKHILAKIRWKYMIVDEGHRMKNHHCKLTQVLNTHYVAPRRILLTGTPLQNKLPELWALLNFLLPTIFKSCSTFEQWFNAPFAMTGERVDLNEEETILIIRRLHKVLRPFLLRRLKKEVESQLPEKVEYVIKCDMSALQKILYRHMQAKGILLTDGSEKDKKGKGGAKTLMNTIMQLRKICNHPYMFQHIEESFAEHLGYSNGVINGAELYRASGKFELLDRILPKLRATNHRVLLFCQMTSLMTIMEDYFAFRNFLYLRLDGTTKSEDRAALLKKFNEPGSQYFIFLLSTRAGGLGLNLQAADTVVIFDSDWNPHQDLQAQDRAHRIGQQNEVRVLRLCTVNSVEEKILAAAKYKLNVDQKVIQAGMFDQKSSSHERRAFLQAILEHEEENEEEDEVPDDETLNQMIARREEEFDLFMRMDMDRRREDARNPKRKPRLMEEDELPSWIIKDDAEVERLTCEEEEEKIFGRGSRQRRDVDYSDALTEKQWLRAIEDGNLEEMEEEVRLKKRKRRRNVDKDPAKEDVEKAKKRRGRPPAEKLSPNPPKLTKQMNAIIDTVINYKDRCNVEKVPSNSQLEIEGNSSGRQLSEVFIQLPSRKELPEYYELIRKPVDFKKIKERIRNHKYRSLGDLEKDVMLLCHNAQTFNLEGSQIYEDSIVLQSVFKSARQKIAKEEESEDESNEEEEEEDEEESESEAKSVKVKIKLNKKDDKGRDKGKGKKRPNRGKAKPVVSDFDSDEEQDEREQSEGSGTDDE", "assay": "In-cell Western screen of BRM degradation in SW1573 cells (Dmax and DC50)", "assay_type": "cell-based", "method_in_brief": "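After adhering overnight, cells received compound for 18-20 hours. They were then washed in cold DPBS, fixed with 4% PFA for 20 min and permeabilized for 30 min. Blocking and fluorescent secondary staining followed before imaging.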", "key": {"[1]": {"conditions": "BRM degradation, SW1573 cells, read-out: DC50"}, "[2]": {"conditions": "BRM degradation, SW1573 cells, tested at the top concentration of between 0.3 and 10 μM, read-out: Dmax (%) (% degraded)"}, "[3]": {"conditions": "target protein degradation, read-out: BRM DC50"}, "[4]": {"conditions": "BRM degradation, SW1573 cells, Table 2D, read-out: **Dmax (%) (% degraded)"}, "[5]": {"conditions": "BRM degradation, SW1573 cells, Table 2D, read-out: *DC50"}, "[6]": {"conditions": "SW1573, % degraded, when tested at the top concentration of between 0.3 and 10 μM, read-out: BRM Dmax (%)"}, "[7]": {"conditions": "BRM degradation, SW1573 cells, when tested at the top concentration of between 0.3 and 10 μM, read-out: Dmax (%) (% degraded)"}}, "note": "Where two headings read alike, the source gives them in different places.", "data": [{"smiles": "Cc1ncsc1-c1ccc([C@@H](NC(=O)[C@@H]2C[C@@H](O)CN2C(=O)[C@H](c2cc(OCCN3CCN(CCOc4cc(N5C6CCC5CN(c5cc(-c7ccccc7O)nnc5N)C6)ccn4)CC3)no2)C(C)C)C(F)F)cc1", "note": "[compound 173, (2S,4R)-1-((2S)-2-(3-(2-(4-(2-((4-(3-(3-amino-6-(2-hydroxyphenyl)pyridazin-4-yl)-3,8-diazabicyclo[3.2.1]octan-8-yl)pyridin-2-yl)oxy)ethyl)piperazin-1-yl)ethoxy)isoxazol-5-yl)-3-methylbutanoyl)-N-((R)-2,2-difluoro-1-(4-(4-methylthiazol-5-yl)phenyl)ethyl)-4-hydroxypyrrolidine-2-carboxamide]", "values": [{"measurement": "DC50", "setting": "[1]", "result": "> 30", "unit": "nM"}, {"measurement": "Dmax", "setting": "[2]", "result": "> 75", "unit": "%"}]}, {"smiles": "CC(C)[C@@H](C(=O)N1C[C@H](O)C[C@H]1C(=O)N[C@@H](C)c1ccc(-n2ccccc2=O)cc1)c1cc(OCCN2CCC(O[C@H]3C[C@H](Oc4cc(N5C6CCC5CN(c5cc(-c7ccccc7O)nnc5N)C6)ccn4)C3)CC2)no1", "note": "[compound 373, (2S,4R)-1-((2R)-2-(3-(2-(4-((1r,3R)-3-((4-(3-(3-amino-6-(2-hydroxyphenyl)pyridazin-4-yl)-3,8-diazabicyclo[3.2.1]octan-8-yl)pyridin-2-yl)oxy)cyclobutoxy)piperidin-1-yl)ethoxy)isoxazol-5-yl)-3-methylbutanoyl)-4-hydroxy-N-((S)-1-(4-(2-oxopyridin-1(2H)-yl)phenyl)ethyl)pyrrolidine-2-carboxamide]", "values": [{"measurement": "DC50", "setting": "[3]", "result": "> 30", "unit": "nM"}]}, {"smiles": "Cc1ncsc1-c1ccc([C@H](C)NC(=O)[C@@H]2C[C@@H](O)CN2C(=O)[C@H](c2cc(N3CCC(OC4CCN(CC5CC(CN6CCC([C@@H](C)n7cc(-c8cc(-c9ccccc9O)nnc8N)cn7)CC6)C5)CC4)CC3)no2)C(C)C)cc1", "note": "(single isomer, unassigned) [compound 595]", "values": [{"measurement": "Dmax", "setting": "[4]", "result": "> 75", "unit": "%"}, {"measurement": "DC50", "setting": "[5]", "result": "< 2.5", "unit": "nM"}]}, {"smiles": "Cc1ncsc1-c1ccc([C@H](C)NC(=O)[C@@H]2C[C@@H](O)CN2C(=O)[C@@H](c2cc(OCCN3CCC(N4CC(Oc5cc(N6C7CCC6CN(c6cc(-c8ccccc8O)nnc6N)C7)ccn5)C4)CC3)no2)C(C)C)cc1", "note": "[compound 374, (2S,4R)-1-((2R)-2-(3-(2-(4-(3-((4-(3-(3-amino-6-(2-hydroxyphenyl)pyridazin-4-yl)-3,8-diazabicyclo[3.2.1]octan-8-yl)pyridin-2-yl)oxy)azetidin-1-yl)piperidin-1-yl)ethoxy)isoxazol-5-yl)-3-methylbutanoyl)-4-hydroxy-N-((S)-1-(4-(4-methylthiazol-5-yl)phenyl)ethyl)pyrrolidine-2-carboxamide]", "values": [{"measurement": "Dmax", "setting": "[6]", "result": "> 75", "unit": "%"}, {"measurement": "DC50", "setting": "[3]", "result": "> 30", "unit": "nM"}]}, {"smiles": "Cc1ncsc1-c1ccc([C@H](C)NC(=O)[C@@H]2C[C@@H](O)CN2C(=O)[C@H](c2cc(CCCN3CCC(O[C@H]4C[C@H](Oc5cc(N6C7CCC6CN(c6cc(-c8ccccc8O)nnc6N)C7)ccn5)C4)CC3)no2)C(C)C)cc1", "note": "[compound 190, (2S,4R)-1-((2S)-2-(3-(3-(4-((1r,3S)-3-((4-(3-(3-amino-6-(2-hydroxyphenyl)pyridazin-4-yl)-3,8-diazabicyclo[3.2.1]octan-8-yl)pyridin-2-yl)oxy)cyclobutoxy)piperidin-1-yl)propyl)isoxazol-5-yl)-3-methylbutanoyl)-4-hydroxy-N-((S)-1-(4-(4-methylthiazol-5-yl)phenyl)ethyl)pyrrolidine-2-carboxamide]", "values": [{"measurement": "DC50", "setting": "[1]", "result": "> 30", "unit": "nM"}]}, {"smiles": "Cc1ncsc1-c1ccc(CNC(=O)[C@@H]2C[C@@H](O)CN2C(=O)[C@@H](c2cc(CCCOCCOCCOCCn3cc(-c4cc(-c5ccccc5O)nnc4N)cn3)no2)C(C)C)cc1", "note": "[compound 24, (2S,4R)-1-[(2R)-2-[3-(3-[2-[2-(2-[4-[3-amino-6-(2-hydroxyphenyl)pyridazin-4-yl]-1H-pyrazol-1-yl]ethoxy)ethoxy]ethoxy]propyl)-1,2-oxazol-5-yl]-3-methylbutanoyl]-4-hydroxy-N-[[4-(4-methyl-1,3-thiazol-5-yl)phenyl]methyl]pyrrolidine-2-carboxamide]", "values": [{"measurement": "DC50", "setting": "[1]", "result": "2.5 to 10", "unit": "nM"}, {"measurement": "Dmax", "setting": "[7]", "result": "> 75", "unit": "%"}]}, {"smiles": "Cc1ncsc1-c1ccc([C@H](C)NC(=O)[C@@H]2C[C@@H](O)CN2C(=O)[C@@H](c2cc(OCCC3CCN(C[C@H]4C[C@H](Oc5cc(N6C7CCC6CN(c6cc(-c8ccccc8O)nnc6N)C7)ccn5)C4)CC3)no2)C(C)C)cc1", "note": "[compound 417, (2S,4R)-1-((2R)-2-(3-(2-(1-(((1r,3R)-3-((4-(3-(3-amino-6-(2-hydroxyphenyl)pyridazin-4-yl)-3,8-diazabicyclo[3.2.1]octan-8-yl)pyridin-2-yl)oxy)cyclobutyl)methyl)piperidin-4-yl)ethoxy)isoxazol-5-yl)-3-methylbutanoyl)-4-hydroxy-N-((S)-1-(4-(4-methylthiazol-5-yl)phenyl)ethyl)pyrrolidine-2-carboxamide]", "values": [{"measurement": "Dmax", "setting": "[6]", "result": "> 75", "unit": "%"}, {"measurement": "DC50", "setting": "degradation of BRM, read-out: BRM DC50", "result": "< 2.5", "unit": "nM"}]}, {"smiles": "Cc1ncsc1-c1ccc([C@H](C)NC(=O)[C@@H]2C[C@@H](O)CN2C(=O)[C@@H](NC(=O)COCCCc2ccc(C(C)n3cc(-c4cc(-c5ccccc5O)nnc4N)cn3)cn2)C(C)(C)C)cc1", "note": "(stereo partly drawn) [compound 61, (2S,4R)-1-((2S)-2-(2-(3-(5-(1-(4-(3-amino-6-(2-hydroxyphenyl)pyridazin-4-yl)-1H-pyrazol-1-yl)ethyl)pyridin-2-yl)propoxy)acetamido)-3,3-dimethylbutanoyl)-4-hydroxy-N-((S)-1-(4-(4-methylthiazol-5-yl)phenyl)ethyl)pyrrolidine-2-carboxamide]", "values": [{"measurement": "DC50", "setting": "[1]", "result": "10 to 30", "unit": "nM"}, {"measurement": "Dmax", "setting": "[7]", "result": "> 75", "unit": "%"}]}, {"smiles": "Cc1ncsc1-c1ccc([C@H](C)NC(=O)[C@@H]2C[C@@H](O)CN2C(=O)[C@@H](c2cc(OCCN3CCC(O[C@H]4C[C@H](Oc5cc(N6C7CCC6CN(c6cc(-c8ccccc8O)nnc6N)C7)ccn5)C4)CC3)no2)C(C)C)nn1", "note": "[compound 504, (2S,4R)-1-((2R)-2-(3-(2-(4-((1r,3R)-3-((4-(3-(3-amino-6-(2-hydroxyphenyl)pyridazin-4-yl)-3,8-diazabicyclo[3.2.1]octan-8-yl)pyridin-2-yl)oxy)cyclobutoxy)piperidin-1-yl)ethoxy)isoxazol-5-yl)-3-methylbutanoyl)-4-hydroxy-N-((S)-1-(6-(4-methylthiazol-5-yl)pyridazin-3-yl)ethyl)pyrrolidine-2-carboxamide]", "values": [{"measurement": "DC50", "setting": "BRM degradation, read-out: BRM DC50", "result": "> 30", "unit": "nM"}]}, {"smiles": "Cc1nccn1-c1ccc([C@H](C)NC(=O)[C@@H]2C[C@@H](O)CN2C(=O)[C@H](c2cc(N3CCC(CN4CCC(O[C@H]5C[C@H](C#C[C@@H](C)n6cc(-c7cc(-c8ccccc8O)nnc7N)cn6)C5)CC4)CC3)no2)C(C)C)cc1", "note": "(single isomer, unassigned) [compound 637]", "values": [{"measurement": "DC50", "setting": "[1]", "result": "2.5 to 10", "unit": "nM"}, {"measurement": "Dmax", "setting": "BRM degradation, SW1573 cells, read-out: Dmax (% degraded)", "result": "> 75", "unit": "%"}]}, {"smiles": "Cc1nccn1-c1ccc([C@H](C)NC(=O)[C@@H]2C[C@@H](O)CN2C(=O)[C@H](c2cc(OC/C=C/c3ccc(O[C@H]4C[C@H](Oc5cc(N6C7CCC6CN(c6cc(-c8ccccc8O)nnc6N)C7)ccn5)C4)cn3)no2)C(C)C)cc1", "note": "[compound 276, (2S,4R)-1-((2S)-2-(3-(((E)-3-(5-((1r,3S)-3-((4-(3-(3-amino-6-(2-hydroxyphenyl)pyridazin-4-yl)-3,8-diazabicyclo[3.2.1]octan-8-yl)pyridin-2-yl)oxy)cyclobutoxy)pyridin-2-yl)allyl)oxy)isoxazol-5-yl)-3-methylbutanoyl)-4-hydroxy-N-((S)-1-(4-(2-methyl-1H-imidazol-1-yl)phenyl)ethyl)pyrrolidine-2-carboxamide]", "values": [{"measurement": "DC50", "setting": "[1]", "result": "> 30", "unit": "nM"}]}, {"smiles": "Cc1ncsc1-c1ccc([C@H](C)NC(=O)[C@@H]2C[C@@H](O)CN2C(=O)[C@@H](c2cc(OCC[C@H]3CCN(C[C@H]4C[C@H](Oc5cc(N6C7CCC6CN(c6cc(-c8ccccc8O)nnc6N)C7)ccn5)C4)C[C@@H]3C)no2)C(C)C)cc1", "note": "(racemic) [compound 577, (2S,4R)-1-((2R)-2-(3-(2-((3R,4R)-1-(((1r,3R)-3-((4-(3-(3-amino-6-(2-hydroxyphenyl)pyridazin-4-yl)-3,8-diazabicyclo[3.2.1]octan-8-yl)pyridin-2-yl)oxy)cyclobutyl)methyl)-3-methylpiperidin-4-yl)ethoxy)isoxazol-5-yl)-3-methylbutanoyl)-4-hydroxy-N-((S)-1-(4-(4-methylthiazol-5-yl)phenyl)ethyl)pyrrolidine-2-carboxamide]", "values": [{"measurement": "Dmax", "setting": "[4]", "result": "> 75", "unit": "%"}, {"measurement": "DC50", "setting": "[5]", "result": "< 2.5", "unit": "nM"}]}, {"smiles": "Cc1ncsc1-c1ccc([C@H](C)NC(=O)C2C[C@@H](O)CN2C(=O)[C@@H](c2onc(OCCN3CCC(O[C@H]4C[C@H](Oc5cc(N6C7CCC6CN(c6cc(-c8ccccc8O)nnc6N)C7)ccn5)C4)CC3)c2Cl)C(C)C)cc1", "note": "(stereo partly drawn) [compound 362, (2S,4R)-1-((2R)-2-(3-(2-(4-((1r,3R)-3-((4-(3-(3-amino-6-(2-hydroxyphenyl)pyridazin-4-yl)-3,8-diazabicyclo[3.2.1]octan-8-yl)pyridin-2-yl)oxy)cyclobutoxy)piperidin-1-yl)ethoxy)-4-chloroisoxazol-5-yl)-3-methylbutanoyl)-4-hydroxy-N-((S)-1-(4-(4-methylthiazol-5-yl)phenyl)ethyl)pyrrolidine-2-carboxamide]", "values": [{"measurement": "Dmax", "setting": "[6]", "result": "> 75", "unit": "%"}, {"measurement": "DC50", "setting": "[3]", "result": "< 2.5", "unit": "nM"}]}, {"smiles": "Cc1ncsc1-c1ccc([C@H](C)NC(=O)[C@@H]2C[C@@H](O)CN2C(=O)[C@H](c2cc(OCC#Cc3ccc(O[C@H]4C[C@H](Oc5cc(N6C7CCC6CN(c6cc(-c8ccccc8O)nnc6N)C7)ccn5)C4)cn3)no2)C(C)C)cn1", "note": "[compound 236, (2S,4R)-1-((2S)-2-(3-((3-(5-((1r,3S)-3-((4-(3-(3-amino-6-(2-hydroxyphenyl)pyridazin-4-yl)-3,8-diazabicyclo[3.2.1]octan-8-yl)pyridin-2-yl)oxy)cyclobutoxy)pyridin-2-yl)prop-2-yn-1-yl)oxy)isoxazol-5-yl)-3-methylbutanoyl)-4-hydroxy-N-((S)-1-(6-(4-methylthiazol-5-yl)pyridin-3-yl)ethyl)pyrrolidine-2-carboxamide]", "values": [{"measurement": "DC50", "setting": "[1]", "result": "> 30", "unit": "nM"}, {"measurement": "Dmax", "setting": "[2]", "result": "> 75", "unit": "%"}]}]}
